The source of these data is US12378194B2, “N, n-dimethyltryptamine salts and crystalline salt forms” (ATAI Therapeutics, Inc., priority 2021, dated 2025).

Structures are written as SMILES.

Data set [1] can be described thus: Physical appearance and form stability at high relative humidity. Conditions: for Hygroscopicity [physical appearance at high RH]: 90% RH, RT. In kind it is physicochemical.
The nature of data set [2]: Dynamic vapor sorption (DVS) hygroscopicity. In kind it is physicochemical. Conditions: for Hygroscopicity [DVS], grade in words: DVS 5% to 95% RH; for DVS wt. loss 95% to 5% RH: desorption 95% to 5% RH; for DVS wt. gain 5% to 95% RH / DVS water uptake 5% to 95% RH: sorption 5% to 95% RH; for DVS water uptake 5% to 95% RH / DVS water uptake 5% to 75% RH / DVS water uptake 75% to 95% RH: mol water per mol; for DVS hysteresis: sorption vs desorption; for DVS wt. loss 75% to 5% RH: desorption 75% to 5% RH; for DVS wt. loss 95% to 75% RH: desorption 95% to 75% RH; for DVS wt. gain 5% to 75% RH / DVS water uptake 5% to 75% RH: sorption 5% to 75% RH; for DVS wt. gain 75% to 95% RH / DVS water uptake 75% to 95% RH: sorption 75% to 95% RH.

The conditions of data set [3]: Brito-da-Costa et al 2020; cited from earlier work.
For data set [4] the following is noted: free base; cited from earlier work.

With `CN(C)CCc1c[nH]c2ccccc12.O=C(O)/C=C/C(=O)O` [DMT Fumarate Form A], the “Hygroscopicity [physical appearance at high RH]” value in data set [1] (7 days) is reported as “white solid”. Moreover, in data set [2], the “Hygroscopicity [DVS], grade in words” value is reported as “limited”; the “DVS wt. loss 95% to 5% RH” value is recorded as 0.679% wt; the “DVS wt. gain 5% to 95% RH” value came to 0.573% wt; the “DVS water uptake 5% to 95% RH” value is “(0.1 mol/mol”. Also, the DVS hysteresis result in data set [2] is listed as “hysteresis”. Further, in data set [2] (listed as Fumarate A), the “Hygroscopicity [DVS], grade in words” value is listed as “Limited hygroscopicity”; the “DVS wt. loss 95% to 5% RH” value was 95% to 5%: 0.679% wt. loss some; the “DVS wt. gain 5% to 95% RH” value is 0.573 % wt; the “DVS water uptake 5% to 95% RH” value was 0.1 mol/mol.

For `CN(C)CCc1c[nH]c2ccccc12.O=C(O)C[C@H](O)C(=O)O` [DMT Malate Form A], in data set [1] (7 days), the “Hygroscopicity [physical appearance at high RH]” value is reported as “white solid”. Moreover, in data set [2], the “Hygroscopicity [DVS], grade in words” value is reported as “significant”; the “DVS wt. loss 75% to 5% RH” value is reported as 1.37% wt. loss; the “DVS wt. loss 95% to 75% RH” value was determined as 9.59% wt. loss; the “DVS wt. gain 5% to 75% RH” value is recorded as 1.21% wt. gain. For the same molecule, in data set [2], the “DVS water uptake 5% to 75% RH” value is on record as “(0.4 mol/mol”, the “DVS wt. gain 75% to 95% RH” value was determined as 9.75% wt. gain and the “DVS water uptake 75% to 95% RH” value is reported as “(1.7 mol/mol”. In addition, in data set [2] (listed as Malate A), the “Hygroscopicity [DVS], grade in words” value is “Significant hygroscopicity”; the “DVS wt. loss 75% to 5% RH” value was 75% to 5%: 1.37% wt loss % wt; the “DVS wt. loss 95% to 75% RH” value was 95% to 75%: 9.59% wt. loss; the “DVS wt. gain 5% to 75% RH” value is on record as 1.21 % wt. In data set [2] (listed as Malate A), the “DVS water uptake 5% to 75% RH” value is recorded as 0.4 mol/mol, the “DVS wt. gain 75% to 95% RH” value worked out at 9.75 % wt and the “DVS water uptake 75% to 95% RH” value is reported as 1.7 mol/mol.

Consider `CN(C)CCc1c[nH]c2ccccc12.O=C(O)CCC(=O)O` [DMT Succinate Form A], for which, in data set [1] (7 days), the “Hygroscopicity [physical appearance at high RH]” value is listed as “white solid”. In addition, the “Physical form after water absorption” value in data set [1] (after water absorption) was “preservation of the physical form”. In data set [2], the “Hygroscopicity [DVS], grade in words” value is reported as “low”; the “DVS wt. loss 95% to 5% RH” value came to 0.175% wt; the “DVS wt. gain 5% to 95% RH” value is 0.171% wt; the “DVS water uptake 5% to 95% RH” value is on record as “(0.03 mol/mol”. Besides, the DVS hysteresis result in data set [2] is reported as “hysteresis”. In addition, in data set [2] (listed as DMT succinate Form A), the “Hygroscopicity [DVS], grade in words” value is given as “least hygroscopic”. In data set [2] (listed as Succinate A), the “Hygroscopicity [DVS], grade in words” value is “Low hygroscopicity”; the “DVS wt. loss 95% to 5% RH” value was 95% to 5%: 0.175% wt. loss some; the “DVS wt. gain 5% to 95% RH” value stood at 0.171 % wt; the “DVS water uptake 5% to 95% RH” value turned out to be 0.03 mol/mol.

As for `CN(C)CCc1c[nH]c2ccccc12.O=S(=O)(O)O` [DMT Sulfate Form A], the “Hygroscopicity [physical appearance at high RH]” value in data set [1] (1 day) is given as “oil/deliquesced”.

Take `CN(C)CCc1c[nH]c2ccccc12` [DMT free base, N,N-dimethyltryptamine]: the “Degradation rate in solution” value in data set [3] was “fast degradation rate”. Also, in data set [4], the Solubility in water entry was “extremely low”.
